# Patent US4166114A, “Aminoglycoside antibiotic derivatives and method of use” (Shionogi & Co., Ltd., priority 1976, dated 1979)
# Like-named read-outs stand apart in the source and are kept apart here.
# Assays:
# Proteus mirabilis TB-617 = assay: MIC (minimum inhibitory concentration); assay type: cell-based
# [1] = system: Klebsiella pneumoniae Kl-38; assay: MIC (minimum inhibitory concentration)
# [2] = system: Pseudomonas aeruginosa PP-6; assay: MIC (minimum inhibitory concentration); settings: tobramycin resistant organism
# [3] = system: Staphylococcus aureus ATCC 25923; assay: MIC (minimum inhibitory concentration)
# [4] = system: Escherichia coli W-677/JR 762; assay: MIC (minimum inhibitory concentration)
# [5] = system: Escherichia coli W-677/JR 214; assay: MIC (minimum inhibitory concentration); settings: tobramycin resistant organism
# [6] = system: Pseudomonas aeruginosa TM-121; assay: MIC (minimum inhibitory concentration)
# [7] = system: Citrobacter freundii Ct-31; assay: MIC (minimum inhibitory concentration); settings: CT31
# Proteus rettgeri Ret 33 = assay: MIC (minimum inhibitory concentration); settings: Providencia rettgeri, RET33
# [8] = system: Staphylococcus aureus 80285; assay: MIC (minimum inhibitory concentration)
# Escherichia coli TB-705 = assay: MIC (minimum inhibitory concentration); assay type: cell-based; settings: TB705, Table 3
# [9] = system: Enterobacter cloacae CI-83; assay: MIC (minimum inhibitory concentration); settings: CI83
# [10] = system: Serratia marcescens MA-26; assay: MIC (minimum inhibitory concentration); settings: MA26
# [11] = system: kanamycin resistant bacteria; settings: literature (Kawaguchi et al.; Fujisawa et al.); cited from earlier work
# [12] = literature (Kawaguchi et al.; Fujisawa et al.); cited from earlier work
# [13] = Table 2, tobramycin resistant organism
# [14] = Proteus mirabilis, TB617, Table 2, read-out: MIC
# [15] = Proteus mirabilis, TB617, Table 3, read-out: MIC
# [16] = Klebsiella pneumoniae, KL38, Table 2
# [17] = Klebsiella pneumoniae, KL38, Table 3
# [18] = Pseudomonas aeruginosa, PP6, Table 2
# [19] = Pseudomonas aeruginosa, PP6, Table 3
# [20] = Staphylococcus aureus, ATCC25923
# [21] = Escherichia coli, W677/JR214, Table 2
# [22] = Escherichia coli, W677/JR214, Table 3
Molecule,MIC (Proteus mirabilis TB-617; [14]) [µg/mL],MIC (Proteus mirabilis TB-617; [15]) [µg/mL],MIC [7] [µg/mL],"MIC [1, 16] [µg/mL]","MIC [1, 17] [µg/mL]",MIC (Proteus rettgeri Ret 33) [µg/mL],"MIC [2, 18] [µg/mL]","MIC [2, 19] [µg/mL]",MIC [8] [µg/mL],MIC (Escherichia coli TB-705) [µg/mL],"MIC [3, 20] [µg/mL]","MIC ([4]; Escherichia coli, W677/JR762) [µg/mL]","MIC [5, 21] [µg/mL]","MIC [5, 22] [µg/mL]",MIC [9] [µg/mL],MIC [10] [µg/mL],"MIC ([6]; Pseudomonas aeruginosa, TM121) [µg/mL]",also measured
gentamicin [GM],–,–,–,–,–,–,–,–,–,–,–,–,–,–,–,–,–,"MIC (Proteus mirabilis TB-617; Table 2): 25 µg/mL; MIC ([1]; Table 2): 0.78 µg/mL; MIC ([2]; Table 2): > 200 µg/mL; MIC ([3]; Table 2): 0.78 µg/mL; MIC [4, 13]: 100 µg/mL; MIC ([5]; Table 2): 100 µg/mL; MIC [6, 13]: 100 µg/mL"
"NC[C@H]1O[C@H](O[C@H]2[C@H](O)[C@@H](O[C@H]3O[C@H](CO)[C@@H](O)[C@H](N)[C@H]3O)[C@H](N)C[C@@H]2N)[C@H](O)[C@@H](O)[C@@H]1O [KM-A, kanamycin A]",> 200,> 100,> 100,> 200,> 100,> 100,200,> 100,> 100,> 100,6.25,> 200,> 200,> 100,> 100,> 100,> 200,–
NC[C@H]1O[C@H](O[C@H]2[C@H](O)[C@@H](O[C@H]3O[C@H](CO)[C@@H](O)[C@H](N)[C@H]3O)[C@H](NC(=O)C3(O)CCNCC3)C[C@@H]2N)[C@H](N)C[C@@H]1O [TOB der.],6.25,1.56,0.78,1.56,0.78,0.78,6.25,3.13,0.39,3.13,1.56,6.25,1.56,0.78,0.78,12.5,12.5,–
"NC[C@H]1O[C@H](O[C@H]2[C@H](O)[C@@H](O[C@H]3O[C@H](CO)[C@@H](O)[C@H](N)[C@H]3O)[C@H](N)C[C@@H]2N)[C@H](N)C[C@@H]1O [TOB, tobramycin]",12.5,12.5,3.13,3.13,1.56,1.56,50,> 100,0.78,6.25,1.56,100,50,100,0.78,50,100,–
"NCC[C@H](O)C(=O)N[C@@H]1C[C@H](N)[C@@H](O[C@H]2O[C@H](CN)[C@@H](O)[C@H](O)[C@H]2O)[C@H](O)[C@H]1O[C@H]1O[C@H](CO)[C@@H](O)[C@H](N)[C@H]1O [Amikacin, amikacin]",–,–,–,–,–,–,–,–,–,–,–,–,–,–,–,–,–,effectiveness against kanamycin resistant bacteria [11]: effective against kanamycin resistant bacteria; toxicity compared with kanamycin [12]: approximately the same degree of the toxicity as kanamycin
"CN[C@@H]1[C@@H](O)[C@@H](O[C@@H]2[C@@H](O)[C@H](O[C@H]3OC(CN)=CC[C@H]3N)[C@@H](N)C[C@H]2N)OC[C@]1(C)O [SSM, sisomicin]",12.5,–,–,0.39,–,–,200,–,–,–,1.56,50,25,–,–,–,200,–
"NC[C@H]1O[C@H](O[C@H]2[C@H](O)[C@@H](O[C@H]3O[C@H](CO)[C@@H](O)[C@H](N)[C@H]3O)[C@H](NC(=O)C3(O)CCNC3)C[C@@H]2N)[C@H](O)[C@@H](O)[C@@H]1O (some centres unmarked) [KM-A der., 1-N-(3-hydroxypyrrolidine-3-carbonyl)-kanamycin A]",–,6.25,3.13,–,3.13,1.56,–,12.5,12.5,25,–,–,–,6.25,3.13,6.25,–,–
